Experimental data from PMC6321168, “Comparative Study on Excretive Characterization of Main Components in Herb Pair Notoginseng-Safflower and Single Herbs by LC–MS/MS” (Pharmaceutics, 2018).

Assay: Urinary excretion study in rats after oral NS, SF or CNS (LC–MS/MS)
Format: in vivo
Details: for concentration at 2 h / concentration at 4 h / concentration at 8 h / concentration at 12 h / concentration at 24 h / concentration at 36 h / concentration at 48 h / concentration at 72 h / concentration at 96 h / concentration at 120 h / concentration at 6 h: male, Sprague Dawley, rat, urine, oral; for Accumulative excretion amount / Accumulative excretion percentage / Excretion amount: rat urine
Method: The animal room was set at constant temperature of 20 ± 2 °C with humidity of 50 ± 20% and 12/12 h light/dark cycle.
Eighteen male rats were fasted for 12 h before starting the experiment. The rats were divided into three groups at random (n = 6) and received NS (60 mg/kg), SF (50 mg/kg), and NS (60 mg/kg) + SF (50 mg/kg), respectively, by oral gavage. The rats were placed in separate metabolic cages. The urine samples were collected at 0–2, 2–4, 4–6, 6–8, 8–12, 12–24, 24–36, 36–48, 48–72, 72–96, and 96–120 h. The feces samples were collected at 0–4, 4–8, 8–12, 12–24, 24–36, 36–48, 48–72, 72–96, and 96–120 h. The urine volume was recorded and the dry feces were measured for each collection period. Samples were stored at −80 °C until analysis.
An aliquot of 200 μL urine sample was mixed with 10 μL of IS and evaporated to dryness with a ZLS-2 vacuum centrifugal concentrator (Herexi Co., Ltd., Changsha, Hunan, China). The residue was reconstituted in 100 μL of 50% methanol vortexed for 2 min and centrifuged at 12,000 rpm for 15 min. Finally, a 1 μL aliquot was injected for LC–MS analysis.
Ultra fast liquid chromatography (UFLC) analysis was performed using a Shimadzu UFLC system (DGU-20A3R Degasser; LC-20AD pump; SIL-20AXR Autosampler; CTO-20AC Column Oven) (Nakagyo-Ku, Koyoto, Japan). […] Because of the different endogenous substances in the urine and feces samples, different elution gradients were used to alleviate the matrix effects for the analytes.
The mass spectrometric detection was performed on an ABSciex 4500 Qtrap mass spectrometer (ABSciex, Foster City, CA, USA) equipped with a negative electrospray ionization (ESI) interface using multiple reaction monitoring (MRM). The MS parameters were optimized under the selected ion monitoring conditions as follows: curtain gas, 35 psi; ionspray voltage, 4500 V; turbo gas temperature, 450 °C; GS1, 45 psi; GS2, 45 psi. All data were acquired and analyzed by Analyst software (Versions 1.6.2) from ABSciex.
The accumulative excretion percentage was calculated for each analyte as follows. Excretion at time (t) = [concentration of the analyte (ng/mL) at t] × total urine (or feces) volume (mL) at t. The cumulative excretion up to time t (mg) was expressed as a percent (%) cumulative excretion by dividing by the total amount of the analyte ingested (mg): % Cumulative Excretion = 100 × (Σt excretiont) total ingested.

CC(C)=CCC[C@](C)(O[C@@H]1O[C@H](CO)[C@@H](O)[C@H](O)[C@H]1O)[C@H]1CC[C@]2(C)[C@@H]1[C@H](O)C[C@@H]1[C@@]3(C)CC[C@H](O[C@@H]4O[C@H](CO)[C@@H](O)[C@H](O)[C@H]4O[C@@H]4O[C@H](CO)[C@@H](O)[C@H](O)[C@H]4O)C(C)(C)[C@@H]3CC[C@]12C [ginsenoside Rd]
concentration at 2 h (60 mg/kg, oral NS 60 mg/kg, 2 h): 17 ± 39 ng/mL | concentration at 4 h (60 mg/kg, oral NS 60 mg/kg, 4 h): 33 ± 69 ng/mL | concentration at 8 h (60 mg/kg, oral NS 60 mg/kg, 8 h): 9 ± 12 ng/mL | concentration at 12 h (60 mg/kg, oral NS 60 mg/kg, 12 h): 28 ± 19 ng/mL | concentration at 24 h (60 mg/kg, oral NS 60 mg/kg, 24 h): 34 ± 63 ng/mL | concentration at 36 h (60 mg/kg, oral NS 60 mg/kg, 36 h): 17 ± 33 ng/mL | concentration at 48 h (60 mg/kg, oral NS 60 mg/kg, 48 h): 12 ± 19 ng/mL | concentration at 72 h (60 mg/kg, oral NS 60 mg/kg, 72 h): 12 ± 23 ng/mL | concentration at 96 h (60 mg/kg, oral NS 60 mg/kg, 96 h): 6 ± 10 ng/mL | concentration at 120 h (60 mg/kg, oral NS 60 mg/kg, 120 h): 3 ± 6 ng/mL | concentration at 2 h (oral CNS 110 mg/kg, 2 h): 22 ± 42 ng/mL | concentration at 4 h (oral CNS 110 mg/kg, 4 h): 9 ± 15 ng/mL | concentration at 6 h (oral CNS 110 mg/kg, 6 h): 17 ± 16 ng/mL | concentration at 8 h (oral CNS 110 mg/kg, 8 h): 38 ± 75 ng/mL | concentration at 12 h (oral CNS 110 mg/kg, 12 h): 53 ± 110 ng/mL | concentration at 24 h (oral CNS 110 mg/kg, 24 h): 315 ± 787 ng/mL | concentration at 36 h (oral CNS 110 mg/kg, 36 h): 41 ± 68 ng/mL | concentration at 48 h (oral CNS 110 mg/kg, 48 h): 30 ± 70 ng/mL | concentration at 72 h (oral CNS 110 mg/kg, 72 h): 16 ± 35 ng/mL | concentration at 96 h (oral CNS 110 mg/kg, 96 h): 16 ± 36 ng/mL | concentration at 120 h (oral CNS 110 mg/kg, 120 h): 10 ± 17 ng/mL | concentration at 6 h (oral NS 60 mg/kg, 6 h): 10 ± 18 ng/mL | Accumulative excretion amount (oral CNS 110 mg/kg, 2 h): 0.005 ± 0.005 µg | Accumulative excretion percentage (oral CNS 110 mg/kg, 2 h): 0.001±0.001% | Excretion amount (oral CNS 110 mg/kg, 2 h): 0.005 ± 0.005 µg | Accumulative excretion amount (oral CNS 110 mg/kg, 4 h): 0.009 ± 0.008 µg | Accumulative excretion percentage (oral CNS 110 mg/kg, 4 h): 0.001±0.001% | Excretion amount (oral CNS 110 mg/kg, 4 h): 0.005 ± 0.007 µg | Accumulative excretion amount (oral CNS 110 mg/kg, 6 h): 0.024 ± 0.023 µg | Accumulative excretion percentage (oral CNS 110 mg/kg, 6 h): 0.003±0.003% | Excretion amount (oral CNS 110 mg/kg, 6 h): 0.018 ± 0.018 µg | Accumulative excretion amount (oral CNS 110 mg/kg, 8 h): 0.029 ± 0.024 µg | Accumulative excretion percentage (oral CNS 110 mg/kg, 8 h): 0.004±0.003% | Excretion amount (oral CNS 110 mg/kg, 8 h): 0.010 ± 0.009 µg | Accumulative excretion amount (oral CNS 110 mg/kg, 12 h): 0.045 ± 0.040 µg | Accumulative excretion percentage (oral CNS 110 mg/kg, 12 h): 0.006±0.005% | Excretion amount (oral CNS 110 mg/kg, 12 h): 0.019 ± 0.016 µg | Accumulative excretion amount (oral CNS 110 mg/kg, 24 h): 0.103 ± 0.083 µg | Accumulative excretion percentage (oral CNS 110 mg/kg, 24 h): 0.014±0.011% | Excretion amount (oral CNS 110 mg/kg, 24 h): 0.058 ± 0.066 µg | Accumulative excretion amount (oral CNS 110 mg/kg, 36 h): 0.114 ± 0.086 µg | Accumulative excretion percentage (oral CNS 110 mg/kg, 36 h): 0.015±0.011% | Excretion amount (oral CNS 110 mg/kg, 36 h): 0.011 ± 0.009 µg | Accumulative excretion amount (oral CNS 110 mg/kg, 48 h): 0.135 ± 0.096 µg | Accumulative excretion percentage (oral CNS 110 mg/kg, 48 h): 0.018±0.013% | Excretion amount (oral CNS 110 mg/kg, 48 h): 0.021 ± 0.024 µg | Accumulative excretion amount (oral CNS 110 mg/kg, 72 h): 0.139 ± 0.098 µg | Accumulative excretion percentage (oral CNS 110 mg/kg, 72 h): 0.018±0.013% | Excretion amount (oral CNS 110 mg/kg, 72 h): 0.004 ± 0.004 µg | Accumulative excretion amount (oral CNS 110 mg/kg, 96 h): 0.144 ± 0.100 µg | Accumulative excretion percentage (oral CNS 110 mg/kg, 96 h): 0.019±0.013% | Excretion amount (oral CNS 110 mg/kg, 96 h): 0.005 ± 0.005 µg | Accumulative excretion amount (oral CNS 110 mg/kg, 120 h): 0.148 ± 0.101 µg | Accumulative excretion percentage (oral CNS 110 mg/kg, 120 h): 0.019±0.013% | Excretion amount (oral CNS 110 mg/kg, 120 h): 0.004 ± 0.004 µg | Accumulative excretion amount (oral NS 60 mg/kg, 2 h): 0.022 ± 0.025 µg | Accumulative excretion percentage (oral NS 60 mg/kg, 2 h): 0.002±0.003% | Excretion amount (oral NS 60 mg/kg, 2 h): 0.022 ± 0.025 µg | Accumulative excretion amount (oral NS 60 mg/kg, 4 h): 0.027 ± 0.029 µg | Accumulative excretion percentage (oral NS 60 mg/kg, 4 h): 0.003±0.003% | Excretion amount (oral NS 60 mg/kg, 4 h): 0.008 ± 0.003 µg | Accumulative excretion amount (oral NS 60 mg/kg, 6 h): 0.048 ± 0.039 µg | Accumulative excretion percentage (oral NS 60 mg/kg, 6 h): 0.006±0.004% | Excretion amount (oral NS 60 mg/kg, 6 h): 0.021 ± 0.020 µg | Accumulative excretion amount (oral NS 60 mg/kg, 8 h): 0.097 ± 0.129 µg | Accumulative excretion percentage (oral NS 60 mg/kg, 8 h): 0.011±0.015% | Excretion amount (oral NS 60 mg/kg, 8 h): 0.082 ± 0.123 µg | Accumulative excretion amount (oral NS 60 mg/kg, 12 h): 0.173 ± 0.206 µg | Accumulative excretion percentage (oral NS 60 mg/kg, 12 h): 0.020±0.024% | Excretion amount (oral NS 60 mg/kg, 12 h): 0.076 ± 0.083 µg | Accumulative excretion amount (oral NS 60 mg/kg, 24 h): 0.279 ± 0.198 µg | Accumulative excretion percentage (oral NS 60 mg/kg, 24 h): 0.032±0.023% | Excretion amount (oral NS 60 mg/kg, 24 h): 0.106 ± 0.109 µg | Accumulative excretion amount (oral NS 60 mg/kg, 36 h): 0.311 ± 0.182 µg | Accumulative excretion percentage (oral NS 60 mg/kg, 36 h): 0.036±0.021% | Excretion amount (oral NS 60 mg/kg, 36 h): 0.041 ± 0.012 µg | Accumulative excretion amount (oral NS 60 mg/kg, 48 h): 0.359 ± 0.187 µg | Accumulative excretion percentage (oral NS 60 mg/kg, 48 h): 0.041±0.021% | Excretion amount (oral NS 60 mg/kg, 48 h): 0.048 ± 0.045 µg | Accumulative excretion amount (oral NS 60 mg/kg, 72 h): 0.372 ± 0.200 µg | Accumulative excretion percentage (oral NS 60 mg/kg, 72 h): 0.043±0.023% | Excretion amount (oral NS 60 mg/kg, 72 h): 0.013 ± 0.018 µg | Accumulative excretion amount (oral NS 60 mg/kg, 96 h): 0.379 ± 0.211 µg | Accumulative excretion percentage (oral NS 60 mg/kg, 96 h): 0.044±0.024% | Excretion amount (oral NS 60 mg/kg, 96 h): 0.008 ± 0.013 µg | Accumulative excretion amount (oral NS 60 mg/kg, 120 h): 0.386 ± 0.221 µg | Accumulative excretion percentage (oral NS 60 mg/kg, 120 h): 0.044±0.025% | Excretion amount (oral NS 60 mg/kg, 120 h): 0.007 ± 0.012 µg
